Assay results from PubChem BioAssay (NCI).
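Values below derive from 48-hour exposures of cells grown in 96-well plates, with endpoints linearly interpolated between the two concentrations bracketing the appropriate inhibition level. Here, GI50 denotes the concentration required for 50% inhibition of growth. TGI: concentration producing complete growth inhibition.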

How the values were obtained:
Experiment in all cases: NCI-60 cell line screen, 48 h
[1] = tested on: SF-295 CNS
[2] = tested on: MCF7 breast
[3] = tested on: SK-OV-3 ovarian
[4] = tested on: CAKI-1 renal
[5] = tested on: COLO 205 colon
[6] = tested on: 786-0 renal
[7] = tested on: SK-MEL-28 melanoma
[8] = tested on: HCT-116 colon
[9] = tested on: SR leukemia
[10] = tested on: U251 CNS
[11] = tested on: LOX IMVI melanoma
[12] = tested on: IGROV1 ovarian
[13] = tested on: SNB-19 CNS
[14] = tested on: HL-60(TB) leukemia
[15] = tested on: SK-MEL-5 melanoma
[16] = tested on: M14 melanoma
[17] = tested on: K-562 leukemia
[18] = tested on: OVCAR-4 ovarian
[19] = tested on: NCI-H23 lung
[20] = tested on: A549 NSCLC
[21] = tested on: SK-MEL-2 melanoma
[22] = tested on: CCRF-CEM leukemia
[23] = tested on: HCT-15 colon
[24] = tested on: SF-268 CNS
[25] = tested on: NCI-H460 lung
[26] = tested on: OVCAR-8 ovarian
[27] = tested on: MDA-MB-231 breast
[28] = tested on: NCI-H522 lung
[29] = tested on: RPMI-8226 leukemia
[30] = tested on: NCI/ADR-RES ovarian
[31] = tested on: A498 renal
[32] = tested on: HT29 colon
[33] = tested on: TK-10 renal
[34] = tested on: KM12 colon
[35] = tested on: SW-620 colon
[36] = tested on: NCI-H226 lung
[37] = tested on: UO-31 renal
[38] = tested on: ACHN renal
[39] = tested on: SNB-75 CNS
[40] = tested on: UACC-257 melanoma
[41] = tested on: SN12C renal
[42] = tested on: EKVX NSCLC
[43] = tested on: HCC-2998 colon
[44] = tested on: PC-3 prostate
[45] = tested on: BT-549 breast
[46] = tested on: HOP-62 NSCLC
[47] = tested on: MOLT-4 leukemia
[48] = tested on: HS 578T breast
[49] = tested on: UACC-62 melanoma
[50] = tested on: DU-145 prostate
[51] = tested on: OVCAR-5 ovarian
[52] = tested on: OVCAR-3 ovarian
[53] = tested on: RXF 393 renal
[54] = tested on: MDA-MB-435
[55] = tested on: HOP-92 NSCLC
[56] = tested on: SF-539 CNS
[57] = tested on: MALME-3M melanoma

## COc1ccc2c(c1)N(CCO)C1=C(C(=O)OC1)C2c1ccccc1 (centres undefined)
[1]
  GI50: 888 nM
  TGI: 2730 nM
[2]
  GI50: 1860 nM
  TGI: > 50000 nM
[3]
  GI50: 1900 nM
  TGI: > 50000 nM
[4]
  GI50: 1150 nM
  TGI: > 50000 nM
[5]
  GI50: 1800 nM
  TGI: 4850 nM
[6]
  GI50: 2700 nM
  TGI: > 50000 nM
[7]
  GI50: 2980 nM
  TGI: > 50000 nM
[8]
  GI50: 1970 nM
  TGI: 15600 nM
[9]
  GI50: 1690 nM
  TGI: > 50000 nM
[10]
  GI50: 1810 nM
  TGI: > 50000 nM
[11]
  GI50: 2920 nM
  TGI: > 50000 nM
[12]
  GI50: 2410 nM
  TGI: > 50000 nM
[13]
  GI50: 2320 nM
  TGI: > 50000 nM
[14]
  GI50: 1150 nM
  TGI: 2840 nM
[15]
  GI50: 1580 nM
  TGI: 8830 nM
[16]
  GI50: 1400 nM
  TGI: 4650 nM
[17]
  GI50: 1230 nM
  TGI: > 50000 nM
[18]
  GI50: 3690 nM
  TGI: > 50000 nM
[19]
  GI50: 1940 nM
  TGI: > 50000 nM
[20]
  GI50: 2120 nM
  TGI: > 50000 nM
[21]
  GI50: 1610 nM
  TGI: 4740 nM
[22]
  GI50: 1910 nM
  TGI: > 50000 nM
[23]
  GI50: 1940 nM
  TGI: > 50000 nM
[24]
  GI50: 2640 nM
  TGI: > 50000 nM
[25]
  GI50: 1770 nM
  TGI: 12500 nM
[26]
  GI50: 2030 nM
  TGI: > 50000 nM
[27]
  GI50: 5990 nM
  TGI: 41700 nM
[28]
  GI50: 746 nM
  TGI: 3330 nM
[29]
  GI50: 1780 nM
  TGI: > 50000 nM
[30]
  GI50: 992 nM
  TGI: 2660 nM
[31]
  GI50: 841 nM
  TGI: 3110 nM
[32]
  GI50: 1770 nM
  TGI: 5730 nM
[33]
  GI50: 2110 nM
  TGI: > 50000 nM
[34]
  GI50: 1480 nM
  TGI: 12000 nM
[35]
  GI50: 1640 nM
  TGI: > 50000 nM
[36]
  GI50: 1550 nM
  TGI: 19000 nM
[37]
  GI50: 2370 nM
  TGI: > 50000 nM
[38]
  GI50: 3780 nM
  TGI: > 50000 nM
[39]
  GI50: 1010 nM
  TGI: > 50000 nM
[40]
  GI50: 1870 nM
  TGI: > 50000 nM
[41]
  GI50: 3700 nM
  TGI: > 50000 nM
[42]
  GI50: 2390 nM
  TGI: > 50000 nM
[43]
  GI50: 3210 nM
  TGI: > 50000 nM
[44]
  GI50: 1750 nM
  TGI: > 50000 nM
[45]
  GI50: 4030 nM
  TGI: > 50000 nM
[46]
  GI50: 2180 nM
  TGI: > 50000 nM
[47]
  GI50: 3630 nM
  TGI: > 50000 nM
[48]
  GI50: 1390 nM
  TGI: 4990 nM
[49]
  GI50: 1720 nM
  TGI: > 50000 nM
[50]
  GI50: 1740 nM
  TGI: 6010 nM
[51]
  GI50: 3770 nM
  TGI: > 50000 nM
[52]
  GI50: 1180 nM
  TGI: 2470 nM

## COc1ccc2c(c1)C(=O)c1c-2n(CCCN)c(=O)c2cc(OC)c(OC)cc12
[1]
  GI50: < 10 nM
  TGI: 1040 nM
[53]
  GI50: 399 nM
  TGI: 1880 nM
[54]
  GI50: 1330 nM
  TGI: 2860 nM
[3]
  GI50: 499 nM
  TGI: 10700 nM
[4]
  GI50: 61.9 nM
  TGI: 467 nM
[6]
  GI50: 146 nM
  TGI: 445 nM
[7]
  GI50: 8190 nM
  TGI: 29100 nM
[8]
  GI50: 28.7 nM
  TGI: 181 nM
[10]
  GI50: 49.1 nM
  TGI: 1630 nM
[11]
  GI50: 52.9 nM
  TGI: 554 nM
[55]
  GI50: 424 nM
  TGI: 2340 nM
[12]
  GI50: 154 nM
  TGI: 976 nM
[14]
  GI50: < 24.5 nM
[15]
  GI50: 283 nM
  TGI: 1930 nM
[20]
  GI50: 26.7 nM
  TGI: 182 nM
[21]
  GI50: 2550 nM
[22]
  GI50: < 10 nM
[23]
  GI50: 229 nM
  TGI: 1180 nM
[24]
  GI50: 515 nM
[25]
  GI50: < 10 nM
  TGI: > 100000 nM
[27]
  GI50: 570 nM
  TGI: 1860 nM
[28]
  GI50: < 10 nM
  TGI: 1030 nM
[30]
  GI50: 405 nM
  TGI: 5400 nM
[31]
  GI50: 1890 nM
  TGI: 5590 nM
[32]
  GI50: 68.4 nM
  TGI: 214 nM
[33]
  GI50: 1450 nM
  TGI: 2990 nM
[56]
  GI50: 164 nM
  TGI: 1290 nM
[34]
  GI50: 169 nM
  TGI: 627 nM
[35]
  GI50: 55.4 nM
  TGI: 1980 nM
[57]
  GI50: 1140 nM
  TGI: 3000 nM
[37]
  GI50: 1190 nM
  TGI: 2720 nM
[38]
  GI50: 39.7 nM
  TGI: 1140 nM
[39]
  GI50: 1160 nM
  TGI: 2550 nM
[40]
  GI50: 3580 nM
  TGI: 19300 nM
[41]
  GI50: 112 nM
  TGI: 1510 nM
[42]
  GI50: 1830 nM
  TGI: 3670 nM
[43]
  GI50: 109 nM
  TGI: 294 nM
[44]
  GI50: 205 nM
  TGI: 1270 nM
[46]
  GI50: < 10 nM
  TGI: 133 nM
[47]
  GI50: < 10 nM
[48]
  GI50: 2200 nM
  TGI: 4810 nM
[49]
  GI50: 299 nM
  TGI: 1930 nM
[50]
  GI50: < 10 nM
  TGI: 153 nM
[51]
  GI50: 1590 nM
  TGI: 3010 nM
[52]
  GI50: 203 nM
  TGI: 1380 nM
